Reference: ChEMBL document CHEMBL5154863, “Design and synthesis of quinolinium-based derivatives targeting FtsZ for antibacterial evaluation and mechanistic study” (Eur J Med Chem, 2022)

Columns and labels:
Type in all cases: functional
Details in all cases: time 20-24 hrs
[1] = system: Staphylococcus aureus; test: Antibacterial activity against Staphylococcus aureus ATCC 29213 assessed as inhibition of bacterial growth incubated for 20 to 24 hrs by broth micro dilution method
[2] = system: Staphylococcus aureus; test: Antibacterial activity against methicillin-resistant Staphylococcus aureus ATCC 43300 assessed as inhibition of bacterial growth incubated for 20 to 24 hrs by broth micro dilution method
[3] = system: Staphylococcus aureus; test: Antibacterial activity against methicillin-resistant Staphylococcus aureus ATCC 33592 assessed as inhibition of bacterial growth incubated for 20 to 24 hrs by broth micro dilution method
[4] = system: Staphylococcus aureus; test: Antibacterial activity against methicillin-resistant Staphylococcus aureus ATCC BAA-1720 assessed as inhibition of bacterial growth incubated for 20 to 24 hrs by broth micro dilution method
[5] = system: Staphylococcus aureus; test: Antibacterial activity against vancomycin-intermediate Staphylococcus aureus Mu50 assessed as inhibition of bacterial growth incubated for 20 to 24 hrs by broth micro dilution method
[6] = system: Staphylococcus epidermidis; test: Antibacterial activity against Staphylococcus epidermidis ATCC 12228 assessed as inhibition of bacterial growth incubated for 20 to 24 hrs by broth micro dilution method
[7] = system: Bacillus subtilis; test: Antibacterial activity against Bacillus subtilis CMCC (B) 63501 assessed as inhibition of bacterial growth incubated for 20 to 24 hrs by broth micro dilution method
[8] = system: Enterococcus faecium; test: Antibacterial activity against Enterococcus faecium ATCC 49624 assessed as inhibition of bacterial growth incubated for 20 to 24 hrs by broth micro dilution method
[9] = system: Enterococcus faecalis; test: Antibacterial activity against Enterococcus faecalis ATCC 29212 assessed as inhibition of bacterial growth incubated for 20 to 24 hrs by broth micro dilution method
[10] = system: Enterococcus faecium; test: Antibacterial activity against vancomycin resistant Enterococcus faecium ATCC 700221 assessed as inhibition of bacterial growth incubated for 20 to 24 hrs by broth micro dilution method
[11] = system: Enterococcus faecium; test: Antibacterial activity against vancomycin-resistant Enterococcus faecium clinical isolate assessed as inhibition of bacterial growth incubated for 20 to 24 hrs by broth micro dilution method
[12] = system: Escherichia coli; test: Antibacterial activity against Escherichia coli ATCC 25922 assessed as inhibition of bacterial growth incubated for 20 to 24 hrs by broth micro dilution method
[13] = system: Escherichia coli; test: Antibacterial activity against Escherichia coli ATCC 8739 assessed as inhibition of bacterial growth incubated for 20 to 24 hrs by broth micro dilution method
[14] = system: Escherichia coli; test: Antibacterial activity against NDM-1 expressing Escherichia coli ATCC BAA2469 assessed as inhibition of bacterial growth incubated for 20 to 24 hrs by broth micro dilution method
[15] = system: Acinetobacter baumannii; test: Antibacterial activity against multi-drug resistant Acinetobacter baumannii ATCC 19606 assessed as inhibition of bacterial growth incubated for 20 to 24 hrs by broth micro dilution method
[16] = system: Pseudomonas aeruginosa; test: Antibacterial activity against […] Pseudomonas aeruginosa ATCC 27853 assessed as inhibition of bacterial growth incubated for 20 to 24 hrs by broth micro dilution method
[17] = system: Klebsiella pneumoniae; test: Antibacterial activity against NDM-1 expressing Klebsiella pneumoniae ATCC BAA 2470 assessed as inhibition of bacterial growth incubated for 20 to 24 hrs by broth micro dilution method

Measured: MIC

CCCCNc1cc(/C=C/c2ccc(N(C)C)cc2)c2ccccc2[n+]1C.[I-]
16 µg/mL: [2] | [4] | [5] | [6] | [8]
8 µg/mL: [7] | [10] | [11]
32 µg/mL: [1] | [3] | [9]
> 64 µg/mL: all other assays above

CCCNc1cc(/C=C/c2ccc(N(C)C)cc2)[n+](C)c2ccccc12.[I-]
4 µg/mL: [3] | [4] | [9] | [10]
16 µg/mL: [7] | [8]
8 µg/mL: [1] | [2] | [5] | [11]
2 µg/mL: [6]
32 µg/mL: [12]
> 64 µg/mL: all other assays above

CN(C)c1ccc(/C=C/c2cc(N3CCCCC3)[n+](C)c3ccccc23)cc1.[I-]
32 µg/mL: [13]
16 µg/mL: [9] | [12]
2 µg/mL: [1] | [10]
1 µg/mL: [6]
64 µg/mL: [14]
8 µg/mL: [3] | [8] | [11]
> 64 µg/mL: [15] | [16] | [17]
4 µg/mL: all other assays above

CCCCNc1cc(/C=C/c2ccc(N(C)C)cc2)[n+](C)c2ccccc12.[I-]
16 µg/mL: [8]
32 µg/mL: [12]
4 µg/mL: [1] | [2] | [5] | [10]
2 µg/mL: [3] | [4] | [6] | [9]
8 µg/mL: [7] | [11]
> 64 µg/mL: all other assays above

CN(C)c1ccc(/C=C/c2cc(NCCCO)c3ccccc3[n+]2C)cc1.[I-]
16 µg/mL: [5] | [9] | [10]
32 µg/mL: [1] | [3]
64 µg/mL: [2] | [4]
8 µg/mL: [6] | [8]
> 64 µg/mL: all other assays above

CN(C)c1ccc(/C=C/c2cc(N3CCCC3)c3ccccc3[n+]2C)cc1.[I-]
64 µg/mL: [14]
> 64 µg/mL: [16] | [17]
8 µg/mL: [4]
2 µg/mL: [2] | [9] | [10]
16 µg/mL: [13]
32 µg/mL: [15]
4 µg/mL: [7] | [8] | [11] | [12]
1 µg/mL: all other assays above

CN(C)c1ccc(/C=C/c2cc(NCCCO)[n+](C)c3ccccc23)cc1.[I-]
32 µg/mL: [7]
64 µg/mL: [3] | [4] | [5] | [6] | [10] | [11]
> 64 µg/mL: all other assays above

CN(C)c1ccc(/C=C/c2cc(NCCCc3ccccc3)c3ccccc3[n+]2C)cc1.[I-]
4 µg/mL: [5] | [7] | [8] | [10] | [11]
2 µg/mL: [1] | [2] | [3] | [4] | [6]
8 µg/mL: [9]
> 64 µg/mL: all other assays above

CCCCCNc1cc(/C=C/c2ccc(N(C)C)cc2)c2ccccc2[n+]1C.[I-]
16 µg/mL: [9]
> 64 µg/mL: [12] | [13] | [14] | [15] | [16] | [17]
8 µg/mL: all other assays above

CN(C)c1ccc(/C=C/c2cc(N3CCOCC3)[n+](C)c3ccccc23)cc1.[I-]
16 µg/mL: [6] | [7]
64 µg/mL: [3]
8 µg/mL: [8]
32 µg/mL: [1] | [5] | [10]
> 64 µg/mL: all other assays above
